# Values quoted from earlier work in patent US20070232537A1, “INTRANASAL PYY FORMULATIONS WITH IMPROVED TRANSMUCOSAL PHARMACOKINETICS” (Nastech Pharmaceutical Company Inc., priority 2005, published 2007).
# Key:
# [1] = aqueous solution at physiologic pH
# [2] = anesthetized rats; increased from 7.5
molecule,measurement,setting,value
NCCN(CCN)/[N+]([O-])=N/O [diethylenetriamine/NO],NO release rate (time),[1],approximately 20 hours
2-alkyl-4-hydroxyquinolines [pyo compound],concentration producing ciliostasis / inhibiting ciliary motility,ciliary motility,50 µg/mL
CCN(CC)/[N+]([O-])=N/O.CCNCC [diethylamine/NO],NO release rate (time),[1],< 3 min
CC(C)CC(N)B(O)O (stereo not drawn) [boro-leucine],times more effective in enzyme inhibition than bestatin,aminopeptidases,more than 100 times
same,times more effective in enzyme inhibition than puromycin,aminopeptidases,more than 1000 times
CC(=O)N[C@@H](CS)C(=O)O [N-acetyl-L-cysteine],nasal bioavailability of human growth hormone,[2],12.2%
